# Assay results taken from ChEMBL document CHEMBL5291721, “A preclinical secondary pharmacology resource illuminates target-adverse drug reaction associations of marketed drugs” (Nat Commun, 2023).
# Tests used:
# [1] = molecular target: 5-hydroxytryptamine receptor 2B (Homo sapiens, UniProt P41595); assay type: functional, cell-based
# [2] = molecular target: T1, 5-hydroxytryptamine receptor 2C (Homo sapiens, UniProt P28335)
# T1 sequence (P28335 whole entry): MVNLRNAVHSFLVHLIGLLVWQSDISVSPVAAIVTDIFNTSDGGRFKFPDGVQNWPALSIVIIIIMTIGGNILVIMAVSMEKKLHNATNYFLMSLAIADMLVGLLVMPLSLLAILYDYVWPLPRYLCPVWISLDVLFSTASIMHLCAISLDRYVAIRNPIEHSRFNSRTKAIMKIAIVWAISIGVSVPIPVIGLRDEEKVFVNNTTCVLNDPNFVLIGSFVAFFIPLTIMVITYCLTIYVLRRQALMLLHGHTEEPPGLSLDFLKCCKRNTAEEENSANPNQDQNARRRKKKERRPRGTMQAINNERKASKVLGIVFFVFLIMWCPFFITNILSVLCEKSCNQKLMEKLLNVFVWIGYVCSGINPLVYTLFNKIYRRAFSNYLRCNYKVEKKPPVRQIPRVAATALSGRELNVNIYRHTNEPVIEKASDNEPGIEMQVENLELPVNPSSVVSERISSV
# Progesterone receptor = molecular target: T2, Progesterone receptor (Homo sapiens, UniProt P06401); assay type: functional
# T2 sequence (P06401 whole entry): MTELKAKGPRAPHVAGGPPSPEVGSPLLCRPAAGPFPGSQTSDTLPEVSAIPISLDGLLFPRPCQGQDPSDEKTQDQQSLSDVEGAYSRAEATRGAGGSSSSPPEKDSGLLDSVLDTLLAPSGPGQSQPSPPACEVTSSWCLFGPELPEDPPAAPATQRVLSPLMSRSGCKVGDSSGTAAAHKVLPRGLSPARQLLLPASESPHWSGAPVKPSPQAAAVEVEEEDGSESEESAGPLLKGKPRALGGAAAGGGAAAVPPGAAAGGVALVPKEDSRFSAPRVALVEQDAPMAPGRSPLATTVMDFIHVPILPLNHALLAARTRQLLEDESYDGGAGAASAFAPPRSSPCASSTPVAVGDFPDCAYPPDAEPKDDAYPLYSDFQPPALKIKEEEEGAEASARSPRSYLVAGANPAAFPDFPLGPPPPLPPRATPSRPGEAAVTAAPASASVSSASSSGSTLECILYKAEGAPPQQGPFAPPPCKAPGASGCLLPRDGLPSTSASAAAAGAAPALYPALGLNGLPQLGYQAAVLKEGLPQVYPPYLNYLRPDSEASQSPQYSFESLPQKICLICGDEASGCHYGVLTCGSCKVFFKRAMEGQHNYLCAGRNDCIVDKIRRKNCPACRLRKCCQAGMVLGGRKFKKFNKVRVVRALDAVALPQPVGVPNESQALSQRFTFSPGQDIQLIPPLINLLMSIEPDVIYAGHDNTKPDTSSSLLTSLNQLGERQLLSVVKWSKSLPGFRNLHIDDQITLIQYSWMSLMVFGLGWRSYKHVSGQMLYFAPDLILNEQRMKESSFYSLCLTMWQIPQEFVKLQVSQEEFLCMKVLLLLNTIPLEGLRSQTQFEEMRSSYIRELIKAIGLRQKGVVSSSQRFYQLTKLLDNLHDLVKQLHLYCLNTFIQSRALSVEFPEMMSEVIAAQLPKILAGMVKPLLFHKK
# [3] = molecular target: T3, 5-hydroxytryptamine receptor 1A (Homo sapiens, UniProt P08908); assay type: functional, cell-based
# T3 sequence (P08908 whole entry): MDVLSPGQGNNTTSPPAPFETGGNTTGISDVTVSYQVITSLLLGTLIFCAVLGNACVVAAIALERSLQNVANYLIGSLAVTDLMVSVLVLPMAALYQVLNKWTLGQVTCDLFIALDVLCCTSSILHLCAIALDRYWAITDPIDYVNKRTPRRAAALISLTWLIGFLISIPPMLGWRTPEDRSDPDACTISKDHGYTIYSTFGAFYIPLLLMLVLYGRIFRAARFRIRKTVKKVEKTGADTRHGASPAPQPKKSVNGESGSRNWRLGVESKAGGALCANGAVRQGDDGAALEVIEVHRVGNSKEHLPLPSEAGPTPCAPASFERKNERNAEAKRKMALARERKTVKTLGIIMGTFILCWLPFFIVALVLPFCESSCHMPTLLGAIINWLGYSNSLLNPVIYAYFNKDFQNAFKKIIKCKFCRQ
# [4] = molecular target: Gamma-aminobutyric acid receptor subunit alpha-1 (Rattus norvegicus, UniProt P62813)
# [5] = molecular target: T4, Alpha-1A adrenergic receptor (Homo sapiens, UniProt P35348); assay type: functional, cell-based
# T4 sequence (P35348 whole entry): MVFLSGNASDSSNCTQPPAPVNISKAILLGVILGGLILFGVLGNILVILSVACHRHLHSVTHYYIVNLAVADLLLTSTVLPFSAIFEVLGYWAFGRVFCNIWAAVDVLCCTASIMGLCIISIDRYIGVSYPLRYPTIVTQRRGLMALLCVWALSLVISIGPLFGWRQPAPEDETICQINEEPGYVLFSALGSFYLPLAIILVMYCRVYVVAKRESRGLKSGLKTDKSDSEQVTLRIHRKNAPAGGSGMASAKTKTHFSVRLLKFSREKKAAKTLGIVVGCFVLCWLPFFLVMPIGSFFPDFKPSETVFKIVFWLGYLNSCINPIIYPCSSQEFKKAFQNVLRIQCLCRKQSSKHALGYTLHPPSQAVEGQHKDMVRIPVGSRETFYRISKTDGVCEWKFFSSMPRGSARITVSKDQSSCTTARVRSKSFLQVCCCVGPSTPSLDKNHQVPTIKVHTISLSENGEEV
# Cannabinoid receptor 1 = Cannabinoid receptor 1 (Homo sapiens, UniProt P21554); assay type: functional, cell-based
# [6] = molecular target: T5, Muscarinic acetylcholine receptor M1 (Homo sapiens, UniProt P11229); assay type: functional
# T5 sequence (P11229 whole entry): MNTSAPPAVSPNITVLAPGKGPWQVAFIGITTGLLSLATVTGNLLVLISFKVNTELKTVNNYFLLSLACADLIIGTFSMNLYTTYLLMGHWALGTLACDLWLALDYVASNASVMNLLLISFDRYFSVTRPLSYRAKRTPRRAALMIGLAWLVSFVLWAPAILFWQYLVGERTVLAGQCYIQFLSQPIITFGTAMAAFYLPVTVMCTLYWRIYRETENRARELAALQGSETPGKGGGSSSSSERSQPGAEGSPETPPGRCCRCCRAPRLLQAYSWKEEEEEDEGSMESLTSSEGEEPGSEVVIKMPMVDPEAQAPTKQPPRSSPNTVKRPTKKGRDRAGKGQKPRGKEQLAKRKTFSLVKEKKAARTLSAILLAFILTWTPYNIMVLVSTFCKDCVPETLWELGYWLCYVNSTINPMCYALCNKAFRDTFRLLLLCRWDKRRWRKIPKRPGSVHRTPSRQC
# Note: assay procedure not described here.
# Chain of 5-hydroxytryptamine receptor 2B (P41595 whole entry): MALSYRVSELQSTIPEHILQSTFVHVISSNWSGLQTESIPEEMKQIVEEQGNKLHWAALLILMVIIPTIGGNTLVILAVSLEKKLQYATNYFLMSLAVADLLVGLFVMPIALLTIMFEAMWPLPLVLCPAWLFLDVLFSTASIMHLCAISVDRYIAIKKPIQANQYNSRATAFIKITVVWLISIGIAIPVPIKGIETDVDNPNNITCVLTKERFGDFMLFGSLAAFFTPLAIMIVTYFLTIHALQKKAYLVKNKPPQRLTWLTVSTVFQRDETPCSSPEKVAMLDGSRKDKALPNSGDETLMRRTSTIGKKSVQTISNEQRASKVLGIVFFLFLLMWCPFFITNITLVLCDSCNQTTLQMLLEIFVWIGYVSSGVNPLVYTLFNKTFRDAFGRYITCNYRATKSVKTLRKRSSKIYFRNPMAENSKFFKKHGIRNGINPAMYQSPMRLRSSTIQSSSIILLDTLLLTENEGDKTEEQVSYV
# Chain of Gamma-aminobutyric acid receptor subunit alpha-1 (P62813 whole entry): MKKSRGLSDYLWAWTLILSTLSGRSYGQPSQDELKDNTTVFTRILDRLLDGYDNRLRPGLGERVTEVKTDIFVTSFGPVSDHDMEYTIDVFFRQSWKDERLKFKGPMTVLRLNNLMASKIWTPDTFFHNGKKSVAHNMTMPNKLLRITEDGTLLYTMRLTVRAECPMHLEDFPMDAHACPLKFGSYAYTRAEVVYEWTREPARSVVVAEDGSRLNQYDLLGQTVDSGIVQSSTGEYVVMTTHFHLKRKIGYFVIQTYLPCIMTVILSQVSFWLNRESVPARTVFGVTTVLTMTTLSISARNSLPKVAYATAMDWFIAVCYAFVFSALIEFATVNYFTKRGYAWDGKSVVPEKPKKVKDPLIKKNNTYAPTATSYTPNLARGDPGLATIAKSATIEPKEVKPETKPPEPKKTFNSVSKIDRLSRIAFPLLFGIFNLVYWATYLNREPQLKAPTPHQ
# Chain of Cannabinoid receptor 1 (P21554 whole entry): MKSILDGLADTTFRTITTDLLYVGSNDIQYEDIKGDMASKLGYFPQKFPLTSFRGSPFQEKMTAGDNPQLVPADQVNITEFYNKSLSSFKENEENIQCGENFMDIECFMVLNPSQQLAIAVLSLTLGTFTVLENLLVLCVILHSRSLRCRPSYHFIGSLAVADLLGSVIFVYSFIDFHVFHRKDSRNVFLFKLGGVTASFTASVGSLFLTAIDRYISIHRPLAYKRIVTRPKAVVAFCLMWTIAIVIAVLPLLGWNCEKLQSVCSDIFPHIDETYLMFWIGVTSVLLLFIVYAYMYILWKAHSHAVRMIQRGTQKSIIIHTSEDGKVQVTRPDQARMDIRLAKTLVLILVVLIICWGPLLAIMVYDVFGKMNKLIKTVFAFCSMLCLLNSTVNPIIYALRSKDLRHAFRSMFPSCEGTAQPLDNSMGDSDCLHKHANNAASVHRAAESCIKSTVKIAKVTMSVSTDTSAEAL
Compound,AC50 [1] [µM],AC50 [2] [µM],AC50 (Progesterone receptor) [µM],AC50 [3] [µM],AC50 [4] [µM],AC50 [5] [µM],AC50 (Cannabinoid receptor 1) [µM],AC50 [6] [µM]
COc1ccc(/C=C/C(=O)Nc2ccccc2C(=O)O)cc1OC,> 30,> 30,> 30,> 30,> 30,–,–,–
NCCCC(O)(P(=O)(O)O)P(=O)(O)O [ALENDRONIC ACID],–,> 30,–,> 10,> 10,–,–,–
Nc1ccc(C(=O)O)c(O)c1 [AMINOSALICYLIC ACID],> 30,> 30,> 30,> 30,> 30,> 30,> 30,–
COc1cc(OC)c(C(=O)CCCN2CCCC2)c(OC)c1 [BUFLOMEDIL],> 30,> 30,> 30,> 30,> 30,> 30,> 30,–
CS(=O)(=O)OCCCCOS(C)(=O)=O [BUSULFAN],> 30,> 30,> 30,> 30,–,> 30,> 30,–
CCCCCCNC(=O)n1cc(F)c(=O)[nH]c1=O [CARMOFUR],> 30,> 30,> 30,> 30,> 30,–,–,–
CC(C)(C)NCC(O)c1cc(Cl)c(N)c(Cl)c1 (configuration not stated) [CLENBUTEROL],> 30,> 30,> 30,3.02,> 30,> 30,> 30,–
COc1cccc2c1C(=O)c1c(O)c3c(c(O)c1C2=O)C[C@@](O)(C(C)=O)C[C@@H]3O[C@H]1C[C@H](N)[C@H](O)[C@H](C)O1 [DAUNORUBICIN],–,14.1,7.42,–,> 30,–,–,–
CC(=O)OCC(CCn1cnc2cnc(N)nc21)COC(C)=O [FAMCICLOVIR],> 10,> 30,–,> 10,> 10,> 30,> 30,–
Nc1ccn([C@@H]2O[C@H](CO)[C@@H](O)C2(F)F)c(=O)n1 [GEMCITABINE],> 10,> 30,> 30,> 10,> 10,> 30,> 30,–
COC1=C(OC)C(=O)C(CCCCCCCCCCO)=C(C)C1=O [IDEBENONE],> 10,> 10,–,> 10,> 10,> 30,> 30,–
CC1(C)C(/C=C/C=C/C=C/C=C2\N(CCCCS(=O)(=O)O)c3ccc4ccccc4c3C2(C)C)=[N+](CCCCS(=O)(=O)[O-])c2ccc3ccccc3c21 [INDOCYANINE GREEN ACID FORM],–,–,> 30,> 30,–,> 30,9.3,9.2
Nc1nc2c(c(=O)[nH]1)N(C=O)C(CNc1ccc(C(=O)N[C@@H](CCC(=O)O)C(=O)O)cc1)CN2 (some centres not stated) [LEUCOVORIN],> 30,> 30,> 30,> 30,> 30,> 30,> 30,–
CCn1cc(C(=O)O)c(=O)c2cc(F)c(N3CCN(C)CC3)cc21 [PEFLOXACIN],> 30,> 30,> 30,> 30,> 30,> 30,> 30,–
C[n+]1ccccc1/C=N/O [PRALIDOXIME],> 30,> 30,–,–,> 30,> 30,> 30,–
CCCNC(C)C(=O)Nc1ccccc1C (configuration not stated) [PRILOCAINE],> 30,> 30,> 30,> 30,–,> 30,> 30,–
CC(C)CC(N(C)C)C1(c2ccc(Cl)cc2)CCC1 (configuration not stated) [SIBUTRAMINE],–,> 30,–,> 30,> 10,> 30,> 30,–
[H]/N=C(/N)N[C@H]1[C@H](O)[C@@H](O)[C@H](O[C@@H]2O[C@@H](C)[C@](O)(C=O)[C@H]2O[C@@H]2O[C@@H](CO)[C@H](O)[C@@H](O)[C@@H]2NC)[C@@H](N/C(N)=N\[H])[C@@H]1O [STREPTOMYCIN],> 30,> 30,> 30,> 30,> 30,> 30,> 30,–
CC(C)(C)NC[C@H](O)COc1nsnc1N1CCOCC1 [TIMOLOL],> 30,> 30,> 30,> 30,> 30,> 30,> 30,–
COc1cc2nccc(Oc3ccc(NC(=O)Nc4cc(C)on4)c(Cl)c3)c2cc1OC [TIVOZANIB],–,–,> 3,–,–,> 30,–,> 30
Cc1cccc(N(C)C(=S)Oc2ccc3ccccc3c2)c1 [TOLNAFTATE],> 10,> 30,> 30,> 10,> 10,> 30,–,–
CN1[C@@H]2CC[C@H]1C[C@@H](OC(=O)c1c[nH]c3ccccc13)C2 [TROPISETRON],15,> 30,–,> 30,> 30,> 30,> 30,–
COc1ccc(C(CN(C)C)C2(O)CCCCC2)cc1 (configuration not stated) [VENLAFAXINE],–,> 30,–,> 30,> 10,> 30,–,–
COLISTIN,> 30,> 30,–,> 30,> 30,> 30,> 30,> 30
